Assay results as given in patent US11078202B2, “β-lactamase inhibitor and use thereof” (priority 2018, dated 2021).
Counter-ions that a name gives are not always drawn.

Key:
Type in all cases: cell-based
[1] = tested on: Acinetobacter baumannii XNWB 0007; assay: MIC assay of test compounds combined with ceftazidime (8 μg/mL); conditions: ceftazidime 8 μg/mL fixed
In short: (§1)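 Inoculum: TSA-grown colonies (35±2 °C, 20-24 h, subcultured once), NaCl 0.9% suspension at OD600 0.1-0.15, then 300× dilution into 1.1×CAMHB. Serial compound dilutions with the partner antibiotic at a fixed level; ambient-air incubation 16-20 h, 35±2 °C; CLSI-based MIC readout.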

[2] = tested on: Klebsiella pneumoniae XNWB 0002; assay: as above; conditions: ceftazidime 8 μg/mL fixed
In short: as §1

[3] = tested on: Klebsiella pneumoniae XNWB 0006; assay: as above; conditions: ceftazidime 8 μg/mL fixed
In short: as §1

[4] = tested on: Klebsiella pneumoniae XNWB 0005; assay: as above; conditions: ceftazidime 8 μg/mL fixed
In short: as §1

[5] = tested on: Klebsiella pneumoniae XNWB 0001; assay: as above; conditions: ceftazidime 8 μg/mL fixed
In short: as §1

[6] = tested on: Klebsiella pneumoniae XNWB 0004; assay: as above; conditions: ceftazidime 8 μg/mL fixed
In short: as §1

[7] = tested on: Pseudomonas aeruginosa XNWB 0008; assay: as above; conditions: ceftazidime 8 μg/mL fixed
In short: as §1

[8] = tested on: Klebsiella pneumoniae XNWB 0003; assay: as above; conditions: ceftazidime 8 μg/mL fixed
In short: as §1

[9] = tested on: Enterobacter aerogenes XNWB 0011; assay: MIC assay of test compounds combined with ampicillin (8 μg/mL); conditions: ampicillin 8 μg/mL fixed
Experimental: (§2) The bacterial strains used for the minimum inhibitory concentration (MIC) test were frozen in a −80° C. ULT freezer and thawed 2 days before use. A small amount of frozen bacterial strains were scraped using a sterile inoculating loop, streaked onto a TSA solid culture dish for inoculation, and then cultured for 20-24 h at 35±2° C. in a normal atmospheric environment.
(§3) 5-10 colonies with similar morphology were picked from the culture dish using a sterile inoculating loop and then re-streaked onto a suitable solid culture dish. Then the dish was placed into a normal incubator for culture for 20-24 h at 35±2° C.
(§4) 5-10 single bacterial colonies were picked from the solid culture dish, resuspended in 500 μL of 0.9% NaCl, and adjusted to an OD600 of 0.1-0.15 with a spectrophotometer.
(§5) The bacteria were then diluted 300-fold with 1.1×CAMHB.
(§6) Test compounds of columns A-H: having a highest final test concentration of 64 μg/mL or 32 μg/mL, 2-fold diluted.
(§7) Dilution of test compounds: All test compounds were dissolved and diluted in dimethylsulfoxide (DMSO). 170 μL of 3.2 mg/mL (50*64 μg/mL) compound was transferred to wells (A1-H1) of column 1 of a dilution master plate and then 85 μL of DMSO was transferred to wells of other columns. Each compound was diluted 2-fold in sequence (i.e., 85 μL of compound was pipetted from column 1 into column 2 and mixed uniformly, 85 μL of compound was pipetted from column 2 into column 3 and mixed uniformly, then 85 μL of compound was pipetted from column 3 into column 4 and mixed uniformly, and so on until the dilution was done in column 11).
(§8) Preparation of an additive of ampicillin: Ampicillin was dissolved in ddH2O. 30 μL of 100 μg/mL (12.5×8 μg/mL) ampicillin was transferred to columns 1-11 of an additive plate, followed by the addition of 30 μL of ddH2O to column 12.
(§9) 2 μL of each compound in the dilution master plate of the test compounds was transferred to the corresponding well of the assay plates. In the mean time, 2 μL of 100% DMSO was transferred to the compound-free wells (GC and SC wells). (1) 8 μL of imipenem in the additive plate of imipenem was transferred to the corresponding wells of the assay plates; (2) 8 μL of ceftazidime in the additive plate of ceftazidime was transferred to the corresponding wells of the assay plates; (3) 8 μL of ampicillin in the additive plate of ampicillin was transferred to the corresponding wells of the assay plates.
(§10) 90 μL of corresponding bacterial inocula were added to wells (except for SC wells) of the assay plates.
(§11) After addition, the 6 assay plates were covered by sterile covers. The mixtures in the assay plates were centrifuged by a centrifuge at 1000 rpm for 30 s, and mixed uniformly by oscillating with a microplate oscillator at 800 rpm for 1 min, and then cultured in a common incubator for 16-20 h at 35±2° C.
(§12) The minimum inhibitory concentration of each compound was recorded by reference to guidelines from the Clinical and Laboratory Standards Institute.
(§13) The minimum inhibitory concentrations of the compounds of the present invention and antibiotics (imipenem, ceftazidime, and ampicillin) against 11 strains of bacteria were tested in this study by reference to the medium microdilution method as indicated by the Clinical and Laboratory Standards Institute. The effect of the test compounds in combination with imipenem, ceftazidime, and ampicillin was also tested. Compounds were diluted two-fold in 96-well plates from the highest detection concentration of 64 μg/mL. The test compounds were tested in combination with a fixed concentration of imipenem (4 μg/mL), ceftazidime (8 μg/mL), and ampicillin (8 μg/mL). The bacterial inocula in the assay plates were resuscitated from TSA and diluted in CAMHB, while growth controls (GC wells) and sterile controls (SC wells) were set up in the assay plates. […]

[10] = tested on: Escherichia coli XNWB 0010; assay: as above; conditions: ampicillin 8 μg/mL fixed
Experimental: as §2, §3, §4, §5, §6, §7, §8, §9, §10, §11, §12, §13

[11] = tested on: Escherichia coli XNWB 0009; assay: as above; conditions: ampicillin 8 μg/mL fixed
Experimental: as §2, §3, §4, §5, §6, §7, §8, §9, §10, §11, §12, §13

[12] = tested on: Acinetobacter baumannii XNWB 0007; assay: MIC assay of test compounds combined with imipenem (4 μg/mL); conditions: imipenem 4 μg/mL fixed
In short: as §1

[13] = tested on: Klebsiella pneumoniae XNWB 0002; assay: as above; conditions: imipenem 4 μg/mL fixed
In short: as §1

[14] = tested on: Klebsiella pneumoniae XNWB 0006; assay: as above; conditions: imipenem 4 μg/mL fixed
In short: as §1

[15] = tested on: Klebsiella pneumoniae XNWB 0005; assay: as above; conditions: imipenem 4 μg/mL fixed
In short: as §1

[16] = tested on: Klebsiella pneumoniae XNWB 0001; assay: as above; conditions: imipenem 4 μg/mL fixed
In short: as §1

[17] = tested on: Klebsiella pneumoniae XNWB 0004; assay: as above; conditions: imipenem 4 μg/mL fixed
In short: as §1

[18] = tested on: Pseudomonas aeruginosa XNWB 0008; assay: as above; conditions: imipenem 4 μg/mL fixed
In short: as §1

[19] = tested on: Klebsiella pneumoniae XNWB 0003; assay: as above; conditions: imipenem 4 μg/mL fixed
In short: as §1

O=C1N2C[C@H](N1OS(=O)(=O)O)C1(CC1)C[C@H]2c1cc(C2CCNC2)on1 (stereo partly drawn) [Example 45, (1R,4S)-6-oxo-4-(5-(pyrrolidin-3-yl)isoxazol-3-yl)-5,7-diazaspiro[bicyclo[3.2.1]octane-2,1′-cyclopropan]-7-yl sulfate]
B (B: 8-16 μg/mL): The minimum concentration of test compounds combined with ceftazidime (8 μg/mL) for bacteriostasis [6] | The minimum concentration of test compounds combined with ceftazidime (8 μg/mL) for bacteriostasis [7]
A (A: <8 μg/mL): The minimum concentration of test compounds combined with ceftazidime (8 μg/mL) for bacteriostasis [2] | The minimum concentration of test compounds combined with ceftazidime (8 μg/mL) for bacteriostasis [3] | The minimum concentration of test compounds combined with ceftazidime (8 μg/mL) for bacteriostasis [4] | The minimum concentration of test compounds combined with ceftazidime (8 μg/mL) for bacteriostasis [5] | The minimum concentration of test compounds combined with ceftazidime (8 μg/mL) for bacteriostasis [8] | The minimum concentration of test compounds combined with ampicillin (8 μg/mL) for bacteriostasis [9] | The minimum concentration of test compounds combined with ampicillin (8 μg/mL) for bacteriostasis [10] | The minimum concentration of test compounds combined with ampicillin (8 μg/mL) for bacteriostasis [11] | The minimum concentration of test compounds combined with imipenem (4 μg/mL) for bacteriostasis [13] | The minimum concentration of test compounds combined with imipenem (4 μg/mL) for bacteriostasis [14] | The minimum concentration of test compounds combined with imipenem (4 μg/mL) for bacteriostasis [15] | The minimum concentration of test compounds combined with imipenem (4 μg/mL) for bacteriostasis [16] | The minimum concentration of test compounds combined with imipenem (4 μg/mL) for bacteriostasis [17] | The minimum concentration of test compounds combined with imipenem (4 μg/mL) for bacteriostasis [18] | The minimum concentration of test compounds combined with imipenem (4 μg/mL) for bacteriostasis [19]
C (C: 16-128 μg/mL): The minimum concentration of test compounds combined with ceftazidime (8 μg/mL) for bacteriostasis [1] | The minimum concentration of test compounds combined with imipenem (4 μg/mL) for bacteriostasis [12]

O=C(NC1CCNCC1)[C@@H]1CC2(CC2)[C@@H]2CN1C(=O)N2OS(=O)(=O)O [Example 27, (1R,4S)-6-oxo-4-(piperidin-4-ylaminoformyl)-5,7-diazaspiro[bicyclo[3.2.1]octane-2,1′-cyclopropan]-7-yl sulfate]
C (C: 16-128 μg/mL): The minimum concentration of test compounds combined with ceftazidime (8 μg/mL) for bacteriostasis [1] | The minimum concentration of test compounds combined with imipenem (4 μg/mL) for bacteriostasis [12]
B (B: 8-16 μg/mL): The minimum concentration of test compounds combined with ceftazidime (8 μg/mL) for bacteriostasis [6] | The minimum concentration of test compounds combined with ceftazidime (8 μg/mL) for bacteriostasis [8]
A (A: <8 μg/mL): The minimum concentration of test compounds combined with ceftazidime (8 μg/mL) for bacteriostasis [2] | The minimum concentration of test compounds combined with ceftazidime (8 μg/mL) for bacteriostasis [3] | The minimum concentration of test compounds combined with ceftazidime (8 μg/mL) for bacteriostasis [4] | The minimum concentration of test compounds combined with ceftazidime (8 μg/mL) for bacteriostasis [5] | The minimum concentration of test compounds combined with ceftazidime (8 μg/mL) for bacteriostasis [7] | The minimum concentration of test compounds combined with imipenem (4 μg/mL) for bacteriostasis [13] | The minimum concentration of test compounds combined with imipenem (4 μg/mL) for bacteriostasis [14] | The minimum concentration of test compounds combined with imipenem (4 μg/mL) for bacteriostasis [15] | The minimum concentration of test compounds combined with imipenem (4 μg/mL) for bacteriostasis [16] | The minimum concentration of test compounds combined with imipenem (4 μg/mL) for bacteriostasis [17] | The minimum concentration of test compounds combined with imipenem (4 μg/mL) for bacteriostasis [18] | The minimum concentration of test compounds combined with imipenem (4 μg/mL) for bacteriostasis [19]

CNCc1cc([C@@H]2CC3(CC3)[C@@H]3CN2C(=O)N3OS(=O)(=O)O)no1 [Example 32]
C (C: 16-128 μg/mL): The minimum concentration of test compounds combined with ceftazidime (8 μg/mL) for bacteriostasis [1] | The minimum concentration of test compounds combined with ceftazidime (8 μg/mL) for bacteriostasis [4] | The minimum concentration of test compounds combined with ceftazidime (8 μg/mL) for bacteriostasis [6] | The minimum concentration of test compounds combined with ceftazidime (8 μg/mL) for bacteriostasis [7] | The minimum concentration of test compounds combined with imipenem (4 μg/mL) for bacteriostasis [12] | The minimum concentration of test compounds combined with imipenem (4 μg/mL) for bacteriostasis [18]
A (A: <8 μg/mL): The minimum concentration of test compounds combined with ceftazidime (8 μg/mL) for bacteriostasis [2] | The minimum concentration of test compounds combined with imipenem (4 μg/mL) for bacteriostasis [13] | The minimum concentration of test compounds combined with imipenem (4 μg/mL) for bacteriostasis [14] | The minimum concentration of test compounds combined with imipenem (4 μg/mL) for bacteriostasis [15] | The minimum concentration of test compounds combined with imipenem (4 μg/mL) for bacteriostasis [16] | The minimum concentration of test compounds combined with imipenem (4 μg/mL) for bacteriostasis [17] | The minimum concentration of test compounds combined with imipenem (4 μg/mL) for bacteriostasis [19]
B (B: 8-16 μg/mL): The minimum concentration of test compounds combined with ceftazidime (8 μg/mL) for bacteriostasis [3] | The minimum concentration of test compounds combined with ceftazidime (8 μg/mL) for bacteriostasis [5] | The minimum concentration of test compounds combined with ceftazidime (8 μg/mL) for bacteriostasis [8]

O=C1N2C[C@H](N1OS(=O)(=O)O)C1(CC1)C[C@H]2c1nnc(CC2CNC2)o1 [Example 23, (1R,4S)-4-(5-(azetidin-3-ylmethyl)-1,3,4-oxadiazol-2-yl)-6-oxo-5,7-diazaspiro[bicycle [3.2.1]octane-2,1′-cyclopropan]-7-yl sulfate]
B (B: 8-16 μg/mL): The minimum concentration of test compounds combined with ceftazidime (8 μg/mL) for bacteriostasis [7] | The minimum concentration of test compounds combined with imipenem (4 μg/mL) for bacteriostasis [12]
C (C: 16-128 μg/mL): The minimum concentration of test compounds combined with ceftazidime (8 μg/mL) for bacteriostasis [1]
A (A: <8 μg/mL): The minimum concentration of test compounds combined with ceftazidime (8 μg/mL) for bacteriostasis [2] | The minimum concentration of test compounds combined with ceftazidime (8 μg/mL) for bacteriostasis [3] | The minimum concentration of test compounds combined with ceftazidime (8 μg/mL) for bacteriostasis [4] | The minimum concentration of test compounds combined with ceftazidime (8 μg/mL) for bacteriostasis [5] | The minimum concentration of test compounds combined with ceftazidime (8 μg/mL) for bacteriostasis [6] | The minimum concentration of test compounds combined with ceftazidime (8 μg/mL) for bacteriostasis [8] | The minimum concentration of test compounds combined with imipenem (4 μg/mL) for bacteriostasis [13] | The minimum concentration of test compounds combined with imipenem (4 μg/mL) for bacteriostasis [14] | The minimum concentration of test compounds combined with imipenem (4 μg/mL) for bacteriostasis [15] | The minimum concentration of test compounds combined with imipenem (4 μg/mL) for bacteriostasis [16] | The minimum concentration of test compounds combined with imipenem (4 μg/mL) for bacteriostasis [17] | The minimum concentration of test compounds combined with imipenem (4 μg/mL) for bacteriostasis [18] | The minimum concentration of test compounds combined with imipenem (4 μg/mL) for bacteriostasis [19]
